Measured values published in patent US11247998B2, “Piperazine heteroaryl derivative, preparation method therefor and use of same in medicine” (priority 2017, dated 2022).

Key:
[1] = system: HBV DNA replication in HepG2.2.15 cells; assay: In vitro anti-HBV activity test (quantitative assay of intracellular HBV DNA), HepG2.2.15 cells, quantitative PCR; type: cell-based, hepatitis B virus (HBV); details: Hepatitis B virus, HBV DNA by quantitative PCR; for EC50: compound treatment Day 2 to Day 8; for Emax: read-out: Emax (effect value of the compound to maximally inhibit HBV DNA replication)
Description: In vitro anti-HBV activity test of the compound of the present invention (quantitative assay of intracellular HBV DNA)
HepG2.2.15 cell is a stable expression cell line that has integrated HBV genome.
Virus particles containing HBV DNA can be synthesized by replication, transcription and encapsidation in the cells, and then secreted. In this study, the quantitative analysis of HBV DNA produced by HepG2.2.15 in vitro proliferation was carried out by quantitative PCR method, thereby determining the activity of the compound of the present invention on inhibiting the HBV DNA replication by inhibiting the assembly of HBV capsid protein.
HepG2.2.15 cells were cultured in DMEM/high glucose medium (10% FBS, […] G418) and passaged every three days. On the day of the experiment, a cell suspension was prepared with fresh cell culture medium, and incubated in a 96-well plate (Corning, #3599) at 40,000 cells/well, at 5% carbon dioxide, 37° C. On Day 2, the compound was dissolved in pure DMSO at a concentration of 20 mM, and then the first concentration of 2 mM was formulated with DMSO, and diluted in 4-fold concentration gradient to 8 concentrations. A control well was added with 90 μl of DMSO. The compound solution was diluted 200-fold with DMEM/high glucose medium. The cell culture plate inoculated on Day 1 was taken out. The medium in the wells was removed by a negative pressure suction device, and the formulated medium containing the compound at each concentration was added respectively to each well at 200 μl/well. The plate was incubated at 37° C. for 72 hours. On Day 5, the medium of the cultured cells was replaced with fresh medium containing the same compound in the same way as Day 2, and then the plate was incubated at 37° C. for 72 hours. On Day 8, the cell culture plate was taken out, centrifuged at 300 g for 3 minutes, and the culture supernatant was collected at 200 μl/well. HBV DNA was extracted from the cell culture supernatant with Qiagen automatic DNA extraction device, and the specific method referred to the instructions of the reagents and instruments. Finally, the extracted DNA was eluted with DNA elution buffer at 100 μl/well. The extracted DNA was subjected to quantitative PCR analysis of HBV DNA using Hepatitis B virus nucleic acid quantitative detection kit (Triplex International Biosciences Co., Ltd.), and the specific method referred to the instruction of the kit. The quantitative standard curve was obtained with the standard sample provided in the kit, and the experiments were performed in parallel. Quantitative conversion of each sample was carried out according to the standard curve. Finally, the EC50 value of the compound was calculated with Graphpad Prism software according to each concentration of the compound and the corresponding DNA value.
The in vitro activity of the compound of the present invention on inhibiting the HBV DNA replication by inhibiting the assembly of HBV capsid protein was determined by the above experiment.

[2] = Effect on in vitro proliferation of HepG2 cells (CellTiter-Glo); type: cell-based; details: human; HepG2 cells, 72 hours, CellTiter-Glo
Description: Test Example 2. Effect of the Compound of the Present Invention on In Vitro Proliferation of HepG2 Cells
HepG2 cells in logarithmic growth phase were taken and digested with trypsin to prepare a cell suspension, which was incubated in a 96-well plate (transparent bottom white 96-well plate, PerkinElmer) at 6,000 cells/well, at 5% carbon dioxide, 37° C. for 16-20 hours. On Day 2, the compound was dissolved in pure DMSO at a concentration of 20 mM. The compound was diluted in 3-fold concentration gradient using an automatic pipetting station (Bravo), 8 concentration points for each compound, and the control well was DMSO. The compound formulated in DMSO at each concentration point was diluted 200-fold with EMEM (containing 10% FBS) medium. The cell culture plate inoculated on Day 1 was taken out. The medium in the wells was removed by a negative pressure suction device, and the formulated medium containing the compound at each concentration was added respectively to each well at 100 μl/well. The plate was incubated at 37° C. for 72 hours. On Day 5, the 96-well cell culture plate was taken out, and freshly formulated CellTiter Glo was added to each well at 100 μl/well. The 96-well plate was left to stand for 5-10 minutes, the bottom was then sealed with a white bottom sealing film (PerkinElmer). The plate was placed in the microplate reader to measure the luminescence signal. The CC50 value of the compound was calculated with Graphpad Prism software according to each concentration of the compound and the corresponding proliferation inhibition signal value.
The inhibition effect of the compound of the present invention on in vitro proliferation of HepG2 cells was determined by the above experiment.

[3] = Pharmacokinetics assay in rats after intragastrical administration (LC/MS/MS of plasma); type: in vivo; details: both sexes, rat, plasma, po, SD rats, 2 mg/kg; for Vd/F: read-out: Apparent distribution volume Vz/F; for AUC: read-out: Area under curve AUC; for bioavailability: read-out: Bioavailability (%) F %; for CL/F: read-out: Clearance CLz/F; for half-life: read-out: Half-life T1/2 (converted); for Cmax: read-out: Plasma concentration Cmax; for MRT: read-out: Residence time MRT
Description: Pharmacokinetics assay of the compound of the present invention
Rats were used as test animals. The drug concentration in plasma at different time points was determined by LC/MS/MS method after intragastrical administration of the compound of Example 1, the compound of Example 2, the compound of Example 4, the compound of Example 6, the compound of Example 7, the compound of Example 11, the compound of Example 39, the compound of Example 42, the compound of Example 44, the compound of Example 45 and the compound of Example 47 to rats. The pharmacokinetic behavior and property of the compound of the present invention were studied and evaluated in rats.
44 Healthy adult SD rats (half male and half female, 4 rats/group) were purchased from Shanghai Jiesijie Laboratory Animal Co., LTD, with Certificate No.: SCXK (Shanghai) 2013-0006.
A certain amount of the test compound was weighed, and added with 5% by volume of DMSO, 5% by volume of tween 80 and 90% by volume of normal saline to prepare a 0.2 mg/mL colorless, clear and transparent solution.
After an overnight fast, SD rats were administrated intragastrically with the test compound at an administration dose of 2.0 mg/kg and an administration volume of 10.0 mL/kg.
The rats were intragastrically administrated the compound of Example 1, the compound of Example 2, the compound of Example 4, the compound of Example 6, the compound of Example 7, the compound of Example 11, the compound of Example 39, the compound of Example 42, the compound of Example 44, the compound of Example 45 and the compound of Example 47. 0.1 ml of blood was taken from the orbit before administration and at 0.5, 1.0, 2.0, 4.0, 6.0, 8.0, 11.0 and 24.0 hours after administration. The samples were stored in heparinized tubes, and centrifuged for 10 minutes at 3500 rpm to separate the blood plasma. The plasma samples were stored at −20° C. The rats were fed two hours after administration.
The content of the test compound in the plasma of rats after intragastrical administration of the test compound at different concentrations was determined: 25 μL of rat plasma at each time after administration was taken, added with 40 μL of the internal standard solution of camptothecin (100 ng/mL) and 200 μL of acetonitrile, vortex-mixed for 5 minutes, and centrifuged for 10 minutes (4000 rpm). 0.2 μL of the supernatant was taken from the plasma samples for LC/MS/MS analysis.

SMILES	EC50 [1] [nM]	Emax [1] [%]	CC50 at 72 h [2] [nM]	Vd/F [3] [L/kg]	AUC [3] [ng·h/mL]	bioavailability [3] [%]	CL/F [3] [mL/min/kg]	half-life [3] [h]	Cmax [3] [ng/mL]	MRT [3] [h]
C[C@H]1Cn2cnc(C(=O)N[C@H](C)C(F)(F)F)c2CN1C(=O)Nc1ccc(F)c(C#N)c1 [Example 11, (S)—N^7-(3-Cyano-4-fluorophenyl)-6-methyl-N^1-((R)-1,1,1-trifluoropropan-2-yl)-5,6-dihydroimidazo[1,5-α]pyrazine-1,7-(8H)-dicarboxamide]	18	100	> 100000	2.89 ± 0.389	10900 ± 4520	111	3.53 ± 1.5	11.2 ± 5.63	597 ± 64	16.3 ± 7.6
C[C@H]1Cn2cnc(C(=O)N[C@H](C)C(F)(F)F)c2CN1C(=O)Nc1ccc(F)c(F)c1 [Example 6, (S)—N^7-(3,4-Difluorophenyl)-6-methyl-N^1-((R)-1,1,1-trifluoropropan-2-yl)-5,6-dihydroimidazo[1,5-α]pyrazine-1,7(8H)-dicarboxamide]	4	100	> 100000	2.16 ± 0.721	12900 ± 6600	120	3.22 ± 1.66	10.8 ± 8.1	629 ± 167	16.7 ± 10.1
C[C@@H]1CN(C(=O)Nc2ccc(F)c(C#N)c2)Cc2c(C(=O)N[C@H](C)C(F)(F)F)nnn21 [Example 44, (R)—N^5-(3-Cyano-4-fluorophenyl)-7-methyl-N^3-((R)-1,1,1-trifluoropropan-2-yl)-6,7-dihydro-[1,2,3]triazolo[1,5-α]pyrazine-3,5(4H)-dicarboxamide]	60	99	> 100000	4.13 ± 0.26	11800 ± 3100	94	2.99 ± 0.78	17 ± 5.05	509 ± 39.4	24.2 ± 7.38
C[C@@H]1CN(C(=O)Nc2ccc(F)c(C#N)c2)Cc2c(C(=O)N[C@H](C)C(F)(F)F)ncn21 [Example 47, (R)—N^7-(3-Cyano-4-fluorophenyl)-5-methyl-N^1-((R)-1,1,1-trifluoropropan-2-yl)-5,6-dihydroimidazo[1,5-α]pyrazine-1,7(8H)-dicarboxamide]	82	100	> 100000	5.69 ± 2.24	7260 ± 3050	125	5.4 ± 2.69	13.1 ± 4.3	462 ± 94	17.7 ± 6.3
C[C@H]1Cn2ncc(C(=O)N[C@H](C)C(F)(F)F)c2CN1C(=O)Nc1ccc(F)c(F)c1 [Example 7, (S)—N^5-(3,4-Difluorophenyl)-6-methyl-N^3-((R)-1,1,1-trifluoropropan-2-yl)-6,7-dihydropyrazolo[1,5-α]pyrazine-3,5(4H)-dicarboxamide]	38	100	> 100000	1.65 ± 0.174	16500 ± 9260	98	2.63 ± 1.46	9.72 ± 5.94	1080 ± 151	14.1 ± 8
C[C@@H](NC(=O)c1cnn2c1CN(C(=O)Nc1ccc(F)c(F)c1)CC2)C(F)(F)F [Example 2, (R)—N^5-(3,4-Difluorophenyl)-N^3-(1,1,1-trifluoropropan-2-yl)-6,7-dihydropyrazolo[1,5-α]pyrazine-3,5(4H)-dicarboxamide]	30	100	> 100000	2.58 ± 0.638	9250 ± 3310	107	4 ± 1.48	8.01 ± 2.26	661 ± 200	11.5 ± 2.8
C[C@@H](NC(=O)c1nnn2c1CN(C(=O)Nc1cc(F)c(F)c(F)c1)CC2)C(F)(F)F [Example 17, (R)—N^5-(3,4,5-Trifluorophenyl)-N^3-(1,1,1-trifluoropropan-2-yl)-6,7-dihydro-[1,2,3]triazolo[1,5-α]pyrazine-3,5(4H)-dicarboxamide]	70	80	> 100000	–	–	–	–	–	–	–
C[C@H](NC(=O)c1ncn2c1CN(C(=O)Nc1ccc(F)c(F)c1)[C@@H](C)C2)C(F)(F)F [Example 41, (S)—N^7-(3,4-Difluorophenyl)-6-methyl-N^1—((S)-1,1,1-trifluoropropan-2-yl)-5,6-dihydroimidazo[1,5-α]pyrazine-1,7(8H)-dicarboxamide]	24	100	> 100000	–	–	–	–	–	–	–
C[C@H]1Cn2ncc(C(=O)NC3(C)COC3)c2CN1C(=O)Nc1cc(F)c(F)c(F)c1 [Example 14, (S)-6-Methyl-N^3-(3-methyloxetan-3-yl)-N^5-(3,4,5-trifluorophenyl)-6,7-dihydropyrazolo[1,5-a]pyrazine-3,5(4H)-dicarboxamide]	44	100	> 100000	–	–	–	–	–	–	–
